From US12466827B2, “1,3,4-oxadiazole derivative compounds as histone deacetylase 6 inhibitor, and the pharmaceutical composition comprising the same” (CHONG KUN DANG PHARMACEUTICAL CORP., priority 2020, dated 2025)
pIC50: −log10 of the molar value.

How the values were obtained:
[1] = molecular target: T1, human recombinant HDAC1 (Homo sapiens, UniProt Q13547); assay: In vitro HDAC enzyme activity inhibition assay (HDAC1); assay type: biochemical; conditions: Fluor de Lys-SIRT1 substrate 10 μM, 30° C., 60 minutes, fluorescence
T1 construct: purchased Enzo Life Sciences, Inc. BML-SE456
Summary of the method: (§1)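 Fluorimetric deacetylase kit: human recombinant HDAC1 or HDAC6 (0.3 μg) with 10 μM Fluor de Lys-SIRT1 substrate and 5-fold diluted compounds, 60 min at 30° C. Developer added for 30 min, fluorescence read at Ex 360/Em 460, IC50 calculated.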

[2] = molecular target: T2, human recombinant HDAC6 (Homo sapiens, UniProt Q9UBN7); assay: In vitro HDAC enzyme activity inhibition assay (HDAC6); assay type: biochemical; conditions: for HDAC6 selectivity (fold): HDAC6 over HDAC1; for pIC50: same protocol as the HDAC1 test, human recombinant HDAC6 (Calbiochem)
T2 construct: purchased Calbiochem Inc. 382180
T2 sequence (Q9UBN7 1-1215): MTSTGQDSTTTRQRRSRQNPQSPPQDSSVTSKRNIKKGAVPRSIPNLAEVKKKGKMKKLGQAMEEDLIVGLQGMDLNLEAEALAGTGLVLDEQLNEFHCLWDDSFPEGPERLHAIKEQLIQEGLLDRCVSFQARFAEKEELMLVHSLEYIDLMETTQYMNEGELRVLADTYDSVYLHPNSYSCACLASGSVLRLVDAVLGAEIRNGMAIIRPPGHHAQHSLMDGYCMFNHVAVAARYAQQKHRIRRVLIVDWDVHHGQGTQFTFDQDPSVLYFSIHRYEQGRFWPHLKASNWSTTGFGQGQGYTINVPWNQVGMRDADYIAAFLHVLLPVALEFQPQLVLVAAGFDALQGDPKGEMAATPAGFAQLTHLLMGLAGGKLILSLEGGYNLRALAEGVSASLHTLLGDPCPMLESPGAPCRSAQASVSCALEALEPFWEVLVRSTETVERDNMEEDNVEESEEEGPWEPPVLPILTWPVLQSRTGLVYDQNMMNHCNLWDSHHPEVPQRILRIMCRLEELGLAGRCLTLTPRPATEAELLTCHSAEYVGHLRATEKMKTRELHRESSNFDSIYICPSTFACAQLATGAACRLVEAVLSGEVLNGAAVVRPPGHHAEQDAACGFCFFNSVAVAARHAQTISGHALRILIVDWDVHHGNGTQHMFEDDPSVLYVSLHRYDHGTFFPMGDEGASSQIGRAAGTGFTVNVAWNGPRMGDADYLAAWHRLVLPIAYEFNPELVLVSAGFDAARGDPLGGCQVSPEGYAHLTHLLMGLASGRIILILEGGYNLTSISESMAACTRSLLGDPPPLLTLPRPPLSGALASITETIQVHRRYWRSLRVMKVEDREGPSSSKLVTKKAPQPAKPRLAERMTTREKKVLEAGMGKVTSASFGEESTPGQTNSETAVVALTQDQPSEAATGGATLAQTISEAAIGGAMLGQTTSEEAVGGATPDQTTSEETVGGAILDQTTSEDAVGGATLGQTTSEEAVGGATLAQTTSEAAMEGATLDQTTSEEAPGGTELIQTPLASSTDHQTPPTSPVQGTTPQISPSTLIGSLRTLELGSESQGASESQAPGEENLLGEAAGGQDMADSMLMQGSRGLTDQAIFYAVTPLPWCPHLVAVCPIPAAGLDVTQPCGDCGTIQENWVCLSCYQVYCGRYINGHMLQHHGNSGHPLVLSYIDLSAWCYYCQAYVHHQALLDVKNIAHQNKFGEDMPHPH
Summary of the method: as §1

T1 sequence (Q13547 whole entry): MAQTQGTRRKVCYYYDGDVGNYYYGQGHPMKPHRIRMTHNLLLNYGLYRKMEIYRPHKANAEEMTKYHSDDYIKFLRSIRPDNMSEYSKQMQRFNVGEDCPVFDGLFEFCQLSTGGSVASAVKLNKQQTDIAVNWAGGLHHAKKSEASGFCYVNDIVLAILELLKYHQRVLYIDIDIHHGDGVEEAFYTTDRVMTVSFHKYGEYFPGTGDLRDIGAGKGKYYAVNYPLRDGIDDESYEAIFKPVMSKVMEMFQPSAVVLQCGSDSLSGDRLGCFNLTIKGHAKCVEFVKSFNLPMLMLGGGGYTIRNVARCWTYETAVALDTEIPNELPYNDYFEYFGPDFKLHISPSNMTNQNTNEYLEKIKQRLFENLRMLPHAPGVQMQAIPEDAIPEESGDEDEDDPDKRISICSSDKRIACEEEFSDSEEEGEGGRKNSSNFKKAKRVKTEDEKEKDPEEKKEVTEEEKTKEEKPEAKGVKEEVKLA

Row | Compound | pIC50 [1] | HDAC6 selectivity (fold) [2] [fold] | pIC50 [2]
1 | O=C(N1CCN(S(=O)(=O)N(Cc2cn3ccc(-c4nnc(C(F)F)o4)cc3n2)c2ccccc2)CC1)C(F)(F)F [Compound 4270, N-((7-(5-(difluoromethyl)-1,3,4-oxadiazol-2-yl)imidazo[1,2-a]pyridin-2-yl)methyl)-N-phenyl-4-(2,2,2-trifluoroacetyl)piperazine-1-sulfonamide] | < 4.30 | 327 | 6.82
2 | CS(=O)(=O)N1CCN(S(=O)(=O)N(Cc2cn3ccc(-c4nnc(C(F)F)o4)cc3n2)c2ccccc2)CC1 [Compound 4271, N-((7-(5-(difluoromethyl)-1,3,4-oxadiazol-2-yl)imidazo[1,2-a]pyridin-2-yl)methyl)-4-(methylsulfonyl)-N-phenylpiperazine-1-sulfonamide] | < 4.30 | 215 | 6.63
3 | COC(=O)N1CCN(S(=O)(=O)N(Cc2cn3ccc(-c4nnc(C(F)F)o4)cc3n2)c2ccccc2)CC1 [Compound 4272, methyl 4-(N-((7-(5-(difluoromethyl)-1,3,4-oxadiazol-2-yl)imidazo[1,2-a]pyridin-2-yl)methyl)-N-phenylsulfamoyl)piperazine-1-carboxylate] | < 4.30 | 298 | 6.77
4 | CN(C)C(=O)N1CCN(S(=O)(=O)N(Cc2cn3ccc(-c4nnc(C(F)F)o4)cc3n2)c2ccccc2)CC1 [Compound 4273, 4—(N-((7-(5-(difluoromethyl)-1,3,4-oxadiazol-2-yl)imidazo[1,2-a]pyridin-2-yl)methyl)-N-phenylsulfamoyl)-N, N-dimethylpiperazine-1-carboxamide] | < 4.30 | 413 | 6.92
5 | O=S(=O)(N1CCN(c2ccccn2)CC1)N(Cc1cn2ccc(-c3nnc(C(F)F)o3)cc2n1)c1ccccc1 [Compound 4274, N-((7-(5-(difluoromethyl)-1,3,4-oxadiazol-2-yl)imidazo[1,2-a]pyridin-2-yl)methyl)-N-phenyl-4-(pyridin-2-yl)piperazine-1-sulfonamide] | < 4.30 | 333 | 6.82
6 | O=S(=O)(N1CCN(c2ncccn2)CC1)N(Cc1cn2ccc(-c3nnc(C(F)F)o3)cc2n1)c1ccccc1 [Compound 4275, N-((7-(5-(difluoromethyl)-1,3,4-oxadiazol-2-yl)imidazo[1,2-a]pyridin-2-yl)methyl)-N-phenyl-4-(pyrimidin-2-yl)piperazine-1-sulfonamide] | < 4.30 | 351 | 6.85
7 | CN1CCN(S(=O)(=O)N(Cc2cn3ccc(-c4nnc(C(F)F)o4)cc3n2)c2cccc(F)c2)CC1 [Compound 4297, N-((7-(5-(difluoromethyl)-1,3,4-oxadiazol-2-yl)imidazo[1,2-a]pyridin-2-yl)methyl)-N-(3-fluorophenyl)-4-methylpiperazine-1-sulfonamide] | < 4.30 | 561 | 7.05
8 | CCN1CCN(S(=O)(=O)N(Cc2cn3ccc(-c4nnc(C(F)F)o4)cc3n2)c2cccc(F)c2)CC1 [Compound 4298, N-((7-(5-(difluoromethyl)-1,3,4-oxadiazol-2-yl)imidazo[1,2-a]pyridin-2-yl)methyl)-4-ethyl-N-(3-fluorophenyl)-piperazine-1-sulfonamide] | < 4.30 | 631 | 7.10
9 | CC(C)N1CCN(S(=O)(=O)N(Cc2cn3ccc(-c4nnc(C(F)F)o4)cc3n2)c2cccc(F)c2)CC1 [Compound 4299, N-((7-(5-(difluoromethyl)-1,3,4-oxadiazol-2-yl)imidazo[1,2-a]pyridin-2-yl)methyl)-N-(3-fluorophenyl)-4-isopropylpiperazine-1-sulfonamide] | < 4.30 | 488 | 6.99
10 | CC(CO)N1CCN(S(=O)(=O)N(Cc2cn3ccc(-c4nnc(C(F)F)o4)cc3n2)c2cccc(F)c2)CC1 (stereo not drawn) [Compound 4300, N-((7-(5-(difluoromethyl)-1,3,4-oxadiazol-2-yl)imidazo[1,2-a]pyridin-2-yl)methyl)-N-(3-fluorophenyl)-4-(1-hydroxypropan-2-yl)piperazine-1-sulfonamide] | < 4.30 | 410 | 6.91
11 | O=S(=O)(N1CCN(C2CCC2)CC1)N(Cc1cn2ccc(-c3nnc(C(F)F)o3)cc2n1)c1cccc(F)c1 [Compound 4301, 4-cyclobutyl-N-((7-(5-(difluoromethyl)-1,3,4-oxadiazol-2-yl)imidazo[1,2-a]pyridin-2-yl)methyl)-N-(3-fluorophenyl)piperazine-1-sulfonamide] | < 4.30 | 595 | 7.08
12 | O=S(=O)(N1CCN(C2COC2)CC1)N(Cc1cn2ccc(-c3nnc(C(F)F)o3)cc2n1)c1cccc(F)c1 [Compound 4302] | < 4.30 | 737 | 7.17
13 | O=S(=O)(N1CCN(C2CCCCC2)CC1)N(Cc1cn2ccc(-c3nnc(C(F)F)o3)cc2n1)c1cccc(F)c1 [Compound 4303, 4-cyclohexyl-N-((7-(5-(difluoromethyl)-1,3,4-oxadiazol-2-yl)imidazo[1,2-a]pyridin-2-yl)methyl)-N-(3-fluorophenyl)piperazine-1-sulfonamide] | < 4.30 | 299 | 6.78
14 | O=S(=O)(N1CCN(C2CCOCC2)CC1)N(Cc1cn2ccc(-c3nnc(C(F)F)o3)cc2n1)c1cccc(F)c1 [Compound 4304, N-((7-(5-(difluoromethyl)-1,3,4-oxadiazol-2-yl)imidazo[1,2-a]pyridin-2-yl)methyl)-N-(3-fluorophenyl)-4-(tetrahydro-2H-pyran-4-yl)piperazine-1-sulfonamide] | < 4.30 | 832 | 7.22
15 | O=S(=O)(N1CCN(C2CCC(F)(F)CC2)CC1)N(Cc1cn2ccc(-c3nnc(C(F)F)o3)cc2n1)c1cccc(F)c1 [Compound 4305, 4-(4,4-difluorocyclohexyl)-N-((7-(5-(difluoromethyl)-1,3,4-oxadiazol-2-yl)imidazo[1,2-a]pyridin-2-yl)methyl)-N-(3-fluorophenyl)piperazine-1-sulfonamide] | < 4.30 | 437 | 6.94
16 | CC(=O)N1CCN(S(=O)(=O)N(Cc2cn3ccc(-c4nnc(C(F)F)o4)cc3n2)c2cccc(F)c2)CC1 [Compound 4306, 4-acetyl-N-((7-(5-(difluoromethyl)-1,3,4-oxadiazol-2-yl)imidazo[1,2-a]pyridin-2-yl)methyl)-N-(3-fluorophenyl)piperazine-1-sulfonamide] | < 4.30 | 617 | 7.09
17 | CCC(=O)N1CCN(S(=O)(=O)N(Cc2cn3ccc(-c4nnc(C(F)F)o4)cc3n2)c2cccc(F)c2)CC1 [Compound 4307, N-((7-(5-(difluoromethyl)-1,3,4-oxadiazol-2-yl)imidazo[1,2-a]pyridin-2-yl)methyl)-N-(3-fluorophenyl)-4-propionylpiperazine-1-sulfonamide] | < 4.30 | 365 | 6.86
18 | O=C(CO)N1CCN(S(=O)(=O)N(Cc2cn3ccc(-c4nnc(C(F)F)o4)cc3n2)c2cccc(F)c2)CC1 [Compound 4308, N-((7-(5-(difluoromethyl)-1,3,4-oxadiazol-2-yl)imidazo[1,2-a]pyridin-2-yl)methyl)-N-(3-fluorophenyl)-4-(2-hydroxyacetyl)piperazine-1-sulfonamide] | < 4.30 | 724 | 7.16
19 | O=C(C1CCC1)N1CCN(S(=O)(=O)N(Cc2cn3ccc(-c4nnc(C(F)F)o4)cc3n2)c2cccc(F)c2)CC1 [Compound 4309, 4-(cyclobutanecarbonyl)-N-((7-(5-(difluoromethyl)-1,3,4-oxadiazol-2-yl)imidazo[1,2-a]pyridine-2-yl)methyl)-N-(3-fluorophenyl)piperazine-1-sulfonamide] | < 4.30 | 437 | 6.94
